Values belong to the compound of their own block, whether it stands above or below them.
Key:
Rattus norvegicus [1] = species: Rattus norvegicus; assay: Antifertility in male rat assessed as reduction in fertility relative to control; type: functional; design: scale not given: the % may be the effect or the level left
Homo sapiens = species: Homo sapiens; assay: Inhibition of calcium channel (unknown origin) at 2 mg/ml relative to control
Meriones unguiculatus = assay: Antifertility activity in gerbils assessed as inhibition of spermatid production at 25 mg/kg, po (reference value: 51.2 %); type: functional; design: scale not given: the % may be the effect or the level left
Oryctolagus cuniculus = assay: Antifertility activity in rabbit assessed as inhibition of spermatid production at 25 mg/kg, po (reference value: 33.9 %); type: functional; design: scale not given: the % may be the effect or the level left
Rattus norvegicus [2] = species: Rattus norvegicus; assay: Antifertility activity in Sprague-Dawley rat assessed as reduction in cauda epididymal sperm count (reference value: 41.5 +/- 19.3 10^6/ml); type: functional
Rattus norvegicus [3] = species: Rattus norvegicus; assay: Antifertility activity in Sprague-Dawley rat assessed as motile sperm percentage (reference value: 85.7 +/- 16.9%); type: functional
Rattus norvegicus [4] = species: Rattus norvegicus; assay: Antifertility activity in Sprague-Dawley rat assessed as sperm with normal morphology (reference value: 77.2 +/- 16.9%); type: functional
[5] = Toxicity in oral dosed rat assessed as median lethal dose; type: organism-based; conditions: in vivo
Rattus norvegicus [6] = species: Rattus norvegicus; assay: Antifertility activity in albino rat assessed as inhibition of motility (reference value: 30.75 %); type: functional; design: scale not given: the % may be the effect or the level left
Rattus norvegicus [7] = assay: Antifertility activity in rat assessed as decrease in fertility at 10 mg/kg administered daily relative to control; type: functional; design: scale not given: the % may be the effect or the level left
Mus musculus [8] = species: Mus musculus; assay: Antifertility activity in mouse assessed as reduction in testicular weight relative to control; type: functional; design: scale not given: the % may be the effect or the level left
Hamster = assay: Antifertility activity in hamster assessed as decrease in egg fertilization percentage at 0.70 to 1.05 mM (reference value: 93.6 +/- 3.12 %); type: functional, Cricetinae; design: scale not given: the % may be the effect or the level left; conditions: dose 0.7-1.05 mM; at 0.7 to 1.05 mM
Rattus norvegicus [9] = assay: Antifertility activity in male albino rat assessed as reduction in number of spermatids at 15 mg/kg administered daily relative to control; type: functional; design: scale not given: the % may be the effect or the level left
Rattus norvegicus [10] = assay: Antifertility activity in male albino rat assessed as reduction in sertoli cells at 15 mg/kg administered daily relative to control; type: functional; design: scale not given: the % may be the effect or the level left
Rattus norvegicus [11] = assay: Antifertility activity in male albino rat assessed as reduction in spermatids at 15 mg/kg administered daily relative to control; type: functional; design: scale not given: the % may be the effect or the level left
Rattus norvegicus [12] = assay: Antifertility activity in male Sprague-Dawley rat assessed as infertility at 100 microg/kg/day measured for 63 to 70 days relative to control; type: functional; conditions: dose 100 µg/kg/day; time 63-70 day
[13] = Toxicity in mouse assessed as median lethal dose; conditions: in vivo
[14] = Toxicity in rat assessed as median lethal dose; conditions: in vivo
Mus musculus [15] = species: Mus musculus; assay: Antifertility against male C57BL/6J mouse assessed as infertility; type: functional, organism-based
Mus musculus [16] = assay: Antifertility activity in C57BL/6J male mouse assessed as head bend back deformation at 0.8 mg/kg administered via oral gavage for 4 weeks relative to control; type: functional
Mus musculus [17] = assay: Antifertility activity in C57BL/6J male mouse assessed as reduction in forward sperm motility at 0.8 mg/kg administered via oral gavage for 4 weeks relative to control; type: functional; design: scale not given: the % may be the effect or the level left

SMILES: CC1(C)C[C@H]2C3=CC[C@@H]4[C@@]5(C)CC[C@H](O[C@@H]6O[C@H](CO[C@@H]7OC[C@@H](O)[C@H](O)[C@H]7O[C@@H]7OC[C@@H](O)[C@H](O)[C@H]7O)[C@@H](O)[C@H](O)[C@H]6O)C(C)(C)[C@@H]5CC[C@@]4(C)[C@]3(C)C[C@@H](O)[C@@]23C[C@@H]1OC3=O
Activity (Rattus norvegicus [1]): 100%

SMILES: CC1(C)C[C@H]2C3=CC[C@@H]4[C@@]5(C)CC[C@H](O[C@@H]6O[C@H](CO[C@@H]7OC[C@@H](O)[C@H](O)[C@H]7O[C@@H]7O[C@H](CO)[C@@H](O)[C@H](O)[C@H]7O)[C@@H](O)[C@H](O)[C@H]6O)C(C)(C)[C@@H]5CC[C@@]4(C)[C@]3(C)C[C@@H](O)[C@@]23C[C@@H]1OC3=O
Activity (Rattus norvegicus [1]): 100%

SMILES: CC1(C)C[C@H]2C3=CC[C@@H]4[C@@]5(C)CC[C@H](O[C@@H]6O[C@H](CO[C@@H]7OC[C@@H](O)[C@H](O)[C@H]7O[C@@H]7O[C@H](CO)[C@@H](O)[C@H](O)[C@H]7O)[C@@H](O)[C@H](O)[C@H]6O[C@@H]6O[C@H](CO)[C@@H](O)[C@H](O)[C@H]6O)C(C)(C)[C@@H]5CC[C@@]4(C)[C@]3(C)C[C@@H](O)[C@@]23C[C@@H]1OC3=O
Activity (Rattus norvegicus [1]): 100%

inhibition (Homo sapiens): 53%
SMILES: Oc1cc(O)c2c(c1)O[C@H](c1ccc(O)c(O)c1)[C@H](O)C2

SMILES: C[C@@H]1C[C@H](O)[C@]2(O)O[C@@H]3C[C@@]4(C=O)[C@@H](CC[C@@H]5[C@@H]4CC[C@]4(C)[C@@H](C6=CC(=O)OC6)CC[C@]54O)C[C@H]3O[C@@H]2O1 [CALOTROPIN]
Activity (Meriones unguiculatus): 65.2%
Activity (Oryctolagus cuniculus): 94%

SMILES: C=C1CC/C=C(/C)CC[C@@H]2[C@@H]1CC2(C)C [CARYOPHYLLENE]
Activity (Rattus norvegicus [2]): 20.8 10^6/ml
Activity (Rattus norvegicus [3]): 57.4%
Activity (Rattus norvegicus [4]): 36.2%
LD50 [5]: > 5000 mg/kg

SMILES: CCCCCCCCCCCC1=C(O)C(=O)C=C(O)C1=O [EMBELIN]
Activity (Rattus norvegicus [6]): 9.5%

SMILES: C=C(C)[C@@H]1CC[C@]2(C)CC[C@]3(C)[C@H](CC[C@@H]4[C@@]5(C)CC[C@H](O)C(C)(C)[C@@H]5CC[C@]43C)[C@@H]12 [LUPEOL]
Activity (Rattus norvegicus [7]): 100%

SMILES: CC1(C)CC[C@]2(C(=O)O)CC[C@]3(C)C(=CC[C@@H]4[C@@]5(C)CC[C@H](O)C(C)(C)[C@@H]5CC[C@]43C)[C@@H]2C1 [OLEANOLIC_ACID]
Activity (Mus musculus [8]): 60%

SMILES: O=C(/C=C/C=C/c1ccc2c(c1)OCO2)N1CCCCC1 [PIPERINE]
Activity (Hamster): 3.89%

SMILES: COC(=O)C1=CO[C@@H](O[C@@H]2O[C@H](CO)[C@@H](O)[C@H](O)[C@H]2O)[C@H]2[C@@H]1C=C[C@@]21C=C([C@H](C)O)C(=O)O1 [PLUMIERIDE]
Activity (Rattus norvegicus [9]): 87%
Activity (Rattus norvegicus [10]): 29%
Activity (Rattus norvegicus [11]): 59%

SMILES: CC(C)[C@]12O[C@H]1[C@@H]1O[C@]13[C@]1(O[C@H]1C[C@H]1C4=C(CC[C@@]13C)C(=O)OC4)[C@@H]2O [TRIPTOLIDE]
Activity (Rattus norvegicus [12]): 100%

SMILES: CC(C)[C@]12O[C@H]1[C@@H]1O[C@@]13[C@@]1(C)CCC4=C(COC4=O)[C@@H]1C[C@@H]1O[C@@]13C2=O [TRIPTONIDE]
LD50 [13]: 300 mg/kg
LD50 [14]: 980 mg/kg
EC50 (Mus musculus [15]): 0.9 mg/kg
Activity (Mus musculus [16]): 100%
Activity (Mus musculus [17]): 100%

From ChEMBL document CHEMBL5241105, “Natural Products with Potential for Nonhormonal Male Contraception” (J Nat Prod, 2021)
